The target of one series is CDK6/CyclinD3 (Homo sapiens, UniProt Q00534). The series can be described thus: Biochemical enzymatic inhibition assay. The following applies: biochemical IC50 vs CDK2.
The test system of series [1] is panel of nonmutant kinases. The series can be described thus: Kinomescan panel. The series is classed as binding. The following applies: for kinases tested showing >90% inhibition versus control: 1 μM, panel of 403 nonmutant kinases; for kinomescan S(10) score: 1 uM, nonmutant kinases with % Ctrl <10 / nonmutant kinases tested.
For a further series, the target named is CDK4/CyclinD3 (Homo sapiens, UniProt P11802). Description: Biochemical enzymatic inhibition assay. The following applies: biochemical IC50 vs CDK2.
Chain of CDK4/CyclinD3 (P11802 whole entry): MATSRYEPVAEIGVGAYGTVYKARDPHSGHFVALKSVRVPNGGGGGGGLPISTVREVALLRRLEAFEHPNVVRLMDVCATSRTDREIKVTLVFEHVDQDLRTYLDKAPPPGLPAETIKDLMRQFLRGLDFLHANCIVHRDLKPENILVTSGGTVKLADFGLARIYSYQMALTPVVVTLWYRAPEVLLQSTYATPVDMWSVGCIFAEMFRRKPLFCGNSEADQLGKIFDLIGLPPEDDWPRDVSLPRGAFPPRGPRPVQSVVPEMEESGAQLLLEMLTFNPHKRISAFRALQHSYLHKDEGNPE
Chain of CDK4/CyclinD3 (P30281 whole entry partner): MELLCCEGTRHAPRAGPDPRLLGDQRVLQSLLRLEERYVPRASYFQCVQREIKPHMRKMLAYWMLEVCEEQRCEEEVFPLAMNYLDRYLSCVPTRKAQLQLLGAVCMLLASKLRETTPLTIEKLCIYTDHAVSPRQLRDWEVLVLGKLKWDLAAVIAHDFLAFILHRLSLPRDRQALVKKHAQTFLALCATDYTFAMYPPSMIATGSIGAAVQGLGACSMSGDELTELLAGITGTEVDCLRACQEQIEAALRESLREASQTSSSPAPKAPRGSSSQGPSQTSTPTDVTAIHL
For a further series, the target named is CDK9/CyclinT1 (Homo sapiens, UniProt P50750). The series can be described thus: Biochemical enzymatic inhibition assay. The following applies: biochemical IC50 vs CDK2.
Chain of CDK9/CyclinT1 (P50750 whole entry): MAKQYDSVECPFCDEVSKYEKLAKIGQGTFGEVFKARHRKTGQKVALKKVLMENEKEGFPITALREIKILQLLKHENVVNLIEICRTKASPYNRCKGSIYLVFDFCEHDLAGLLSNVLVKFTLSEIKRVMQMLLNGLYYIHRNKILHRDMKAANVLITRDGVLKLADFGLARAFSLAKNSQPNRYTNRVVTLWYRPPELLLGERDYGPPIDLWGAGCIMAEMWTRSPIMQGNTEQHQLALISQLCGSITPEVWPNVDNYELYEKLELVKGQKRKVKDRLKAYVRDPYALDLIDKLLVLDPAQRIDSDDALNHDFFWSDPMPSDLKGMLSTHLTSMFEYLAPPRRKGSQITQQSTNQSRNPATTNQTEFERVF
Chain of CDK9/CyclinT1 (O60563 whole entry partner): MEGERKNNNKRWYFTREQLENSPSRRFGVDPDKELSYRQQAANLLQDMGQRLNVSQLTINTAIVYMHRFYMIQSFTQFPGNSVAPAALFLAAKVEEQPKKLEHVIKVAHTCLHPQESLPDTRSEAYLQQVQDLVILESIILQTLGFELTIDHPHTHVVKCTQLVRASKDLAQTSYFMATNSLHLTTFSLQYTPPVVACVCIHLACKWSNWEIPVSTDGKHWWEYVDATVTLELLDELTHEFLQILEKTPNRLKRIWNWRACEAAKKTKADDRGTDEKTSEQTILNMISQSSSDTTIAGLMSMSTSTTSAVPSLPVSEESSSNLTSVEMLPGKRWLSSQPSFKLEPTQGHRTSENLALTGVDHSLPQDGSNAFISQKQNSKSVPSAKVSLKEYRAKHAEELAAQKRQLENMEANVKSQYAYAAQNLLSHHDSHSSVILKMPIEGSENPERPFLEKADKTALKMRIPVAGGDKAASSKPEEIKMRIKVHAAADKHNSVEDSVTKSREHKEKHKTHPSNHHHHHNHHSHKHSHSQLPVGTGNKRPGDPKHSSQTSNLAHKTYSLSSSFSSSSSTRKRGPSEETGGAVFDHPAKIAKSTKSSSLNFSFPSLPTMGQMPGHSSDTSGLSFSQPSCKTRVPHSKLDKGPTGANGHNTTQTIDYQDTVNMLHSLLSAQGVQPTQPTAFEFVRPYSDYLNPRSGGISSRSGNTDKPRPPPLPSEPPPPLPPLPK
In a further series the target is CDK1/cyclinB1 (Homo sapiens, UniProt P06493). The following applies: biochemical IC50 vs CDK2.
Chain of CDK1/cyclinB1 (P14635 whole entry): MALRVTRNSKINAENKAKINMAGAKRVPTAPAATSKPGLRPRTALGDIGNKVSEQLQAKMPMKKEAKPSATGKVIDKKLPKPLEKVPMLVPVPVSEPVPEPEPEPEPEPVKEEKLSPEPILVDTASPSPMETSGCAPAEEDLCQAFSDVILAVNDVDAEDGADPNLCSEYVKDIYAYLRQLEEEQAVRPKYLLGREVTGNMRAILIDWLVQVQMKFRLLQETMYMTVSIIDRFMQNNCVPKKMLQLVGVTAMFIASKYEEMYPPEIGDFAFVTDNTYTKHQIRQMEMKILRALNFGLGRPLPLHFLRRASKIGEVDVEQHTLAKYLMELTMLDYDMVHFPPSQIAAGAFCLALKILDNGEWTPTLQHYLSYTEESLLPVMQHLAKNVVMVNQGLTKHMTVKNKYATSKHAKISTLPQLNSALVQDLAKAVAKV
Chain of CDK1/cyclinB1 (P06493 whole entry): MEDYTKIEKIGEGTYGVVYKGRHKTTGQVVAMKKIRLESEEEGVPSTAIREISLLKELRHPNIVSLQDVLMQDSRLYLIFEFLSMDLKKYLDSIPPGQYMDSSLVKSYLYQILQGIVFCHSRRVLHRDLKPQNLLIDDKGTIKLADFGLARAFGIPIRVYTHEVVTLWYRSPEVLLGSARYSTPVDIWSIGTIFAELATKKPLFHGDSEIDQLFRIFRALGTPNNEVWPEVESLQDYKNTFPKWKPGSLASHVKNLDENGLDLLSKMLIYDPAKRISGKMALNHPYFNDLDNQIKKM
Series [2] can be described thus: Microsomal stability. It counts as in vitro ADME. The following applies: human, liver microsomes. A general note: Microsomes from liver hold many membrane-bound enzymes, among them those of drug oxidation.
A short description of the next series: FaSSIF solubility. It counts as physicochemical. The following applies: kinetic from dmso stock.
A further series addresses CDK2 (Homo sapiens, UniProt P24941). Description: 14-hr AlphaLISA of CDK2 degradation in MKN1 CCNE1amp cells. The series is classed as cell-based. The following applies: read-out: MKN1 CDK2 DC50.
Series [3] in a line: Microsomal stability. The following applies: rat, liver microsomes. The series is classed as in vitro ADME.
Series [4] can be described thus: MDCK passive permeability. The series is classed as in vitro ADME, canine. The following applies: dog, pH 7.4.
The next series concerns the target MDR1 (Homo sapiens, UniProt P08183). Description: MDCK-MDR1 efflux ratio. It counts as in vitro ADME. The following applies: dog, MDCK-MDR1, pH 7.4.
A further series in a line: LogD. The series is classed as physicochemical. The following applies: 1-octanol/phosphate buffer, pH 7.4.
The nature of a further series: Rat PK. The series is classed as in vivo. The following applies: in vivo; for Vd / clearance / half-life: iv, 2 mg/kg; for bioavailability: oral, 10 mg/kg.
In the next series the target is CYP3A4 (Homo sapiens, UniProt P08684). The series can be described thus: Cyp3A4 TDI. It counts as in vitro ADME.
Chain of CYP3A4 (P08684 whole entry): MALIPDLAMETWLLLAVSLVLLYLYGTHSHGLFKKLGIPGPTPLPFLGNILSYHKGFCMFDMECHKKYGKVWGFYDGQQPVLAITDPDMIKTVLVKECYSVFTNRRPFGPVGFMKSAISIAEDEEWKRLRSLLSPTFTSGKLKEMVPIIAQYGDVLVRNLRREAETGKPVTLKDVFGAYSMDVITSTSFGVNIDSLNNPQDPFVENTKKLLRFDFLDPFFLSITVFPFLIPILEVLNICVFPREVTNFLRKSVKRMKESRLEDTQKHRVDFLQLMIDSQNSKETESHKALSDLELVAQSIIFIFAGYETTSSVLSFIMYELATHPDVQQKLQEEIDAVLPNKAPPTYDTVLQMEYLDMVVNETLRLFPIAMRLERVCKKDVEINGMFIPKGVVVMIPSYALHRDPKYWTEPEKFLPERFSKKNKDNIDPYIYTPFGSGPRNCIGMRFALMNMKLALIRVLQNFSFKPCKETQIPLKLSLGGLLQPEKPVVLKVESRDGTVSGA
[5] abbreviates: CYP3A4 TDI (+NADPH), 30 min pre-incubation with NADPH.
Where [6] appears, read: CYP3A4 TDI (-NADPH), 30 min pre-incubation without NADPH.

In brackets after ≈: the same amount, converted by molar mass.

The CLint scaled is the capacity of the preparation to metabolise the compound, expressed as a volume cleared per time. Low values mean slow turnover, high ones rapid turnover. One may read the solubility as how much of the substance goes into solution per volume. A low value points to a poorly soluble substance. By DC50 is commonly meant the concentration at which degradation of the target reaches its halfway point. The Papp A→B is the apparent permeability from the apical to the basolateral side of a cell layer. Broadly, the efflux ratio is a quotient of directional permeabilities that is used to spot active efflux. As usually defined, the logD is lipophilicity at a set pH, counting ionised and neutral species. Read a high logD as a more lipophilic compound. One may read the Vd as a proportionality between amount in the body and measured concentration, not a real space. Read a high Vd as wide distribution into tissue. Broadly, the clearance is the rate of elimination divided by the concentration. The half-life is the time in which the quantity being followed falls by half. Read a high half-life as slow decline. As usually defined, the bioavailability is dose-corrected exposure relative to a reference, in per cent. Read a low bioavailability as little systemic uptake. By IC50 is commonly meant the point on the concentration scale where inhibition reaches its midpoint.

Chain of MDR1 (P08183 whole entry, species assumed): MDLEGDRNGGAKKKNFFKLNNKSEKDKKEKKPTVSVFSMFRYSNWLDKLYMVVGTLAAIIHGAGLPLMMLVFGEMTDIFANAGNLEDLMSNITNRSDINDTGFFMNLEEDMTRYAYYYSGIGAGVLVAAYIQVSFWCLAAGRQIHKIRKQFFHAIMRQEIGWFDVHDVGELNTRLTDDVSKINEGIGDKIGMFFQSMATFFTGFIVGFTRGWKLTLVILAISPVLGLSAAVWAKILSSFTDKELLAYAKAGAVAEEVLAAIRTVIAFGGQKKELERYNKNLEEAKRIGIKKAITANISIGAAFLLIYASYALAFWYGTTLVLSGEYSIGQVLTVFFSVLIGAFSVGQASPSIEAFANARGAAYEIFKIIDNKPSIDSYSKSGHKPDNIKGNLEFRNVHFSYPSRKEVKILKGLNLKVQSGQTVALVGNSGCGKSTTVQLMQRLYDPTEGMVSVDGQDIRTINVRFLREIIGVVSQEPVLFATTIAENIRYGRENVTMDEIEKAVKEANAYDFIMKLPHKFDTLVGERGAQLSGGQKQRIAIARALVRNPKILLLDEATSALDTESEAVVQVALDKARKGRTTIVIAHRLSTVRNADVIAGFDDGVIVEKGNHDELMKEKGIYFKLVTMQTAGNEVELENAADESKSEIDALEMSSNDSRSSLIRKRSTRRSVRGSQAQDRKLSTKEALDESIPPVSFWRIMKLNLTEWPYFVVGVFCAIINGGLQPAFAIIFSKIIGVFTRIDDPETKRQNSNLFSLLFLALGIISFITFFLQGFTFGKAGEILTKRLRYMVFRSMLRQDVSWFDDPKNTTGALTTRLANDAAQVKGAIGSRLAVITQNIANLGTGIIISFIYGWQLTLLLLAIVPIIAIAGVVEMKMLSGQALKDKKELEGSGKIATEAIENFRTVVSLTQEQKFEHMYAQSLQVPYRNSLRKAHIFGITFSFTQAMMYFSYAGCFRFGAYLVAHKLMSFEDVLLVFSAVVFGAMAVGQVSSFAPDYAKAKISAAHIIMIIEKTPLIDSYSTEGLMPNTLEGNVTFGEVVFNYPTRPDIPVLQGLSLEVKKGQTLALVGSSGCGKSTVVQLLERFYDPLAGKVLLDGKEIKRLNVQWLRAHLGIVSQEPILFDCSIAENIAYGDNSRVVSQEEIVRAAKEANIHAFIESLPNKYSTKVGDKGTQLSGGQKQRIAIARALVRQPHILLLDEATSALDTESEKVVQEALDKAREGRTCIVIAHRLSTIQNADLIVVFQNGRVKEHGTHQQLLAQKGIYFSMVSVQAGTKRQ
Chain of CDK6/CyclinD3 (Q00534 whole entry): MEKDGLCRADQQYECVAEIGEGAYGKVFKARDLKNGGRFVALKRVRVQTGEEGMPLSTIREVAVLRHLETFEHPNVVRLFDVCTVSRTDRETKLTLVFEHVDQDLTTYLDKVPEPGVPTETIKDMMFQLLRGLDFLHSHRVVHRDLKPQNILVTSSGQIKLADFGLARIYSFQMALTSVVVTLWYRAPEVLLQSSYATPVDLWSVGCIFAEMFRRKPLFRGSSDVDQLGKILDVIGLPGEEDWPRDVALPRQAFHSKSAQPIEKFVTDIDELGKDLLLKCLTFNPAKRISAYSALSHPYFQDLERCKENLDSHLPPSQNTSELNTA
Chain of CDK6/CyclinD3 (P30281 whole entry partner): as the sequence (P30281 whole entry partner) above

For `CNS(=O)(=O)c1ccc(Nc2ncc3cc(Cl)c(=O)n(C4CCCC4)c3n2)c(C)c1` [Compound 1], the “selectivity over CDK6” value at CDK6/CyclinD3 is > 124 fold. Besides, in series [1], the “kinases tested showing >90% inhibition versus control” value was 18/403. Besides, the “selectivity over CDK4” value at CDK4/CyclinD3 is recorded as > 44 fold.

As to `CNS(=O)(=O)c1ccc(Nc2ncc(C(F)(F)F)c([C@H]3CC[C@@](C)(O)CC3)n2)c(C)c1` [Compound 3], on CDK9/CyclinT1, the “selectivity vs CDK9” value is recorded as > 357 fold. In addition, the “kinases tested showing >90% inhibition versus control” value in [1] is listed as 2/403. The “selectivity vs CDK1” value at CDK1/cyclinB1 was 47 fold.

For the molecule `CNS(=O)(=O)c1ccc(Nc2ncc(C(F)(F)F)c([C@H]3CC[C@](C)(O)CC3)n2)c(C)c1` [Compound 4, trans-4-[[4-(4-Hydroxy-4-methyl-cyclohexyl)-5-(trifluoromethyl)pyrimidin-2-yl]amino]-N,3-dimethyl-benzenesulfonamide], the “selectivity vs CDK1” value at CDK1/cyclinB1 turned out to be 16 fold.

As for `CNS(=O)(=O)c1ccc(Nc2ncc(C(F)(F)F)c(N3CCC[C@](C)(O)C3)n2)c(C)c1` [Compound 7], on CDK9/CyclinT1, the “selectivity vs CDK9” value is listed as > 5000 fold. The “kinases tested showing >90% inhibition versus control” value in series [1] is 4/403. At CDK1/cyclinB1, the “selectivity vs CDK1” value is 42 fold.

With `Cc1cc(S(=O)(=O)NCCO[C@H]2CC[C@H](CN3CCC(c4ccc5c(c4)n(C)c(=O)n5C4CCC(=O)NC4=O)CC3)CC2)ccc1Nc1ncc(C(F)(F)F)c([C@H]2CC[C@@](C)(O)CC2)n1` (stereo partly drawn) [Compound 8], the CLint scaled at 1 µM in “Microsomal stability [2]” turned out to be 79 mL/min/kg. Further, the solubility at 2 h in “FaSSIF solubility” was determined as 153 µM (≈ 142 µg/mL). The DC50 on CDK2 was 4.9 nM. In “Microsomal stability [3]”, the CLint scaled at 1 µM is < 21 mL/min/kg. The Papp A→B at 120 min, 1 µM in [4] was found to be 1 ×10⁻⁶ cm/s. The efflux ratio at 120 min, 1 μM at MDR1 is > 30. Besides, the log distribution coefficient (logD) at 1 h in “LogD” was 4.1. For the same molecule, in “Rat PK”, the volume of distribution (Vd) was found to be 15 L/kg, the clearance was determined as 59 mL/min/kg, the half-life was 5.7 h and the bioavailability turned out to be 1%.

For the molecule `Cc1cc(S(=O)(=O)NCCO[C@H]2CC[C@H](CN3CCC(c4ccc5c(c4F)n(C)c(=O)n5C4CCC(=O)NC4=O)CC3)CC2)ccc1Nc1ncc(C(F)(F)F)c([C@H]2CC[C@@](C)(O)CC2)n1` (stereo partly drawn) [Compound 9], in “Microsomal stability [2]”, the CLint scaled at 1 µM was 102 mL/min/kg. In the series “FaSSIF solubility”, this molecule showed a solubility at 2 h of 173 µM (≈ 163 µg/mL). For the same molecule, the DC50 on CDK2 worked out at 12 nM. The molecule also gave a CLint scaled at 1 µM in the series “Microsomal stability [3]” of 26 mL/min/kg. Also, the apparent permeability from apical to basolateral (Papp A→B) at 120 min, 1 µM in series [4] stood at 2 ×10⁻⁶ cm/s. The efflux ratio at 120 min, 1 μM at MDR1 was > 54. The molecule also had a logD at 1 h in the series “LogD” of 4.6. In addition, in the series “Rat PK”, the volume of distribution (Vd) stood at 11 L/kg, the clearance came out at 45 mL/min/kg, the half-life was 4.9 h and the bioavailability came to 5%.

As for `[2H][C@@](C)(COC1CCC(CN2CCN(c3ccc4c(c3F)n(C)c(=O)n4C3CCC(=O)NC3=O)CC2)CC1)NS(=O)(=O)c1ccc(Nc2ncc(C(F)(F)F)c(N3CCC[C@](C)(O)C3)n2)c(C)c1` (stereo partly drawn) [Compound 13], the intrinsic clearance (CLint scaled) at 1 µM came to 143 mL/min/kg in the series “Microsomal stability [2]” and 25 mL/min/kg in “Microsomal stability [3]”. The solubility at 2 h in “FaSSIF solubility” is 62 µM (≈ 59.5 µg/mL). In addition, the DC50 on CDK2 came to 1 nM. In series [4], this molecule showed an apical-to-basolateral permeability (Papp A→B) at 120 min, 1 µM of 2.3 ×10⁻⁶ cm/s. Moreover, the efflux ratio at 120 min, 1 μM at MDR1 is 91. In “LogD”, this molecule gave a logD at 1 h of 4.6.

As for `C[C@]1(O)CCCN(c2nc(Nc3ccc(S(=O)(=O)N[C@H]4CC[C@H](CN5CCN(c6ccc(C7CCC(=O)NC7=O)cc6F)CC5)CC4)cc3F)ncc2C(F)(F)F)C1` (stereo partly drawn) [Compound 31], the “kinomescan S(10) score” value in [1] came out at 0. Besides, the half-maximal inhibitory concentration (IC50) against CYP3A4 (setting [5]) and on CYP3A4 (setting [6]) was > 10000 nM each time.

`C[C@]1(O)CCCN(c2nc(Nc3ccc(S(=O)(=O)N[C@H]4CC[C@H](CN5CCN(c6ccc(C7CCC(=O)NC7=O)cc6F)CC5)CC4)cc3Cl)ncc2C(F)(F)F)C1` (stereo partly drawn) [Compound 32]: in [1], the “kinomescan S(10) score” value came out at 0. Moreover, the half-maximal inhibitory concentration (IC50) at CYP3A4 (setting [5]) and against CYP3A4 (setting [6]) was > 10000 nM in each case.

Values taken from PMC12434667 (Journal of Medicinal Chemistry, 2025).
